Like-named read-outs stand apart in the source and are kept apart here. Numbered stars: 1 amine (or outer) side, 2 acyl side, 3 side chain; on linkers, the order of the positions; unused ones are H or OH. Square brackets hold non-standard residues; d marks the D form. Side chains are listed from the residue outwards. Peptide text beside a SMILES is read from it. * marks the point of attachment. X1 = CCCCCCCCCCCCCCCC(=O)N[C@@H](CCC(=O)N[C@@H](CCC(=O)N[C@@H](CCC(=O)NCCCOCCOCCOCCCNC(=O)CCC(=O)NCCCOCCOCCOCCCNC(=O)CCC(=O)NCCCOCCOCCOCCCN*)C(=O)O)C(=O)O)C(=O)O; Suc = O=C(CCC(=O)[*:2])[*:1]; αMeK = C[C@](N)(CCCCN)C(=O)O; Aib = CC(C)(N)C(=O)O
What was measured:
Assay type in all cases: in vivo, human
[1] = Phase 1 single dose study in severe renal impaired and normal renal function subjects: pharmacokinetics; details: for AUC(0-inf) / Cmax: human, in vivo, sc, 4 mg, single 4.0 mg sc; for AUC(0-inf): read-out: AUCINF_pred
Text: (§1) This study is an open label, phase 1, multi-centre, single dose study in severe renal impaired subjects and in matched subjects with normal renal function. In this preliminary evaluation, five subjects with severe renal impairment and two subjects with normal renal function were included.
This study is a Phase 1, multi-center, single dose study in severe renal impaired subjects and in matched subjects with normal renal function. Five subjects with severe renal impairment and two subjects with normal renal function were included. PK sampling was performed predose and at 1, 2, 3, 4, 6, 8, 10, 12, 24, 48, 72, 96, and 120 h postdose.

[2] = Phase 1 SAD/MAD study in healthy volunteers: pharmacokinetics; details: for AUC(0-t): read-out: AUC0-24
Description: (§2) Described in this Example is a Phase 1, randomized, double-blind, pacebo controlled trial for assessing safety, tolerability, PK, and PD of a Relaxin Agonist (i.e., Relaxin peptide analogue of SEQ ID NO: 3).
(§3) The SAD part A was a SAD study with a total of 40 subjects (n=8 per cohort; 6 to Relaxin Agonist and 2 to placebo) to be enrolled sequentially in up to 5 cohorts (Cohorts A1 to A5). Four cohorts received a dose via SC injection only and 1 cohort (Cohort A2, 4.0 mg) was dosed via both SC and IV injection, with at least 2-week washout period between SC and IV injections. The 4.0 mg dosing cohort (Cohort A2) received the IV dose after the 12.0 mg SC cohort (Cohort A3) was completed. Subjects in each cohort received 1 of 5 dose levels (1.0 mg, 4.0 mg, 12.0 mg, 24.0 mg, and 48.0 mg) or matching placebo as follows: • Cohort A1: a single SC dose of 1.0 mg Relaxin Agonist (n=6) or matching placebo (n=2) • Cohort A2: Period 1 a single SC dose of 4.0 mg Relaxin Agonist (n=6) or matching placebo (n=2) • Cohort A2: Period 2 a single 15-min IV dose of 4.0 mg Relaxin Agonist (n=6) or matching placebo (n=2) • Cohort A3: a single SC dose of 12.0 mg Relaxin Agonist (n=6) or matching placebo (n=2) • Cohort A4: a single SC dose of 24.0 mg Relaxin Agonist (n=6) or matching placebo (n=2) • Cohort A5: a single SC dose of 48.0 mg Relaxin Agonist (n=6) or matching placebo (n=2)
(§4) In the MAD part B of the study, a total of 24 subjects (n=8 per cohort; 6 to Relaxin Agonist and 2 to placebo) were enrolled sequentially (Cohorts B1 to B3) with subjects within a cohort being enrolled in a parallel fashion. Cohorts B1 to B3 receive one of 3 SC doses (5.0 mg, 15.0 mg, 30.0 mg once daily [QD]) as follows: • Cohort B1: 5.0 mg SC Relaxin Agonist (n=6) or matching placebo (n=2) QD for 14 days • Cohort B2: 15.0 mg SC Relaxin Agonist (n=6) or matching placebo (n=2) QD for 14 days • Cohort B3: 30.0 mg SC Relaxin Agonist (n=6) or matching placebo (n=2) QD for 14 days
After 24 mg and 48 mg sc doses, higher than dose-proportional exposures were observed (approximately 15% higher than expected).
Therefore, after sc administration, the absolute bioavailability (F) is approximately 0.76.
Preliminary PK results after single and multiple ascending doses of Relaxin Agonist administered subcutaneously (sc) are summarized in Table 6. For all dose regimens (5 mg, 15 mg, and 30 mg), an accumulation of approximately 2.6-fold was observed on Day 14.

[3] = Phase 1 single dose study in severe renal impaired and normal renal function subjects: safety; details: single sc 4.0 mg
Text: as §1

[4] = Phase 1 SAD/MAD study in healthy volunteers: safety and tolerability
Description: as §2, §3
In this first-in-human study, the subjects in all SAD cohorts were dosed according to a sentinel dosing design to ensure optimal safety. This meant that initially 2 subjects were dosed: 1 subject with Relaxin Agonist and 1 subject with placebo. If at the lowest dose level (Cohort A1) the safety and tolerability results of the first 48 h following dosing for the initial subjects was acceptable to the Investigator, the other 6 subjects (5 active and 1 placebo) were to be dosed. In Cohorts A2 to A5, the safety and tolerability results of the first 24 h following dose administration were evaluated in the first 2 subjects before the remainder of the subjects in that cohort are dosed.
as §4

[5] = severe renal impaired group compared to normal group and SAD 4 mg group
[6] = part B: once daily sc 5.0, 15.0, 30 mg for 14 days

AUC(0-inf) ([1]; Normal renal function group, mean, N=2): 12900 ng·h/mL | Cmax ([1]; Normal renal function group, mean, N=2, read-out: Cmax): 302 ng/mL | AUC(0-inf) ([1]; Severe renal impairment group, mean, N=5): 17000 ng·h/mL | Cmax ([1]; Severe renal impairment group, mean, N=5, read-out: Cmax): 392 ng/mL | Cmax ([1]; normal group, read-out: Mean Cmax): 302 ng/mL | Cmax ([1]; severe renal impaired group, read-out: Mean Cmax): 392 ng/mL | increase of mean AUCinf [1, 5]: 14-31% | increase of mean Cmax [1, 5]: 10-30% | AUCinf after iv administration as compared to sc administration ([2]; 4 mg single dose iv vs sc): ~1.3 fold | Cmax after iv administration as compared to sc administration ([2]; 4 mg single dose iv vs sc): approximately 3.5 fold | accumulation ([2]; Day 14, all dose regimens (5 mg, 15 mg, 30 mg sc QD)): approximately 2.6 fold | exposure higher than expected (higher than dose-proportional) ([2]; after 24 mg and 48 mg sc single doses): approximately 15% | bioavailability ([2]; human, in vivo, 4 mg, after sc administration, read-out: absolute bioavailability (F)): ~76% | Cmax ([2]; human, in vivo, iv, 4 mg, Group A2, single 4.0 mg iv, mean, N=6, read-out: Cmax): 1240 ng/mL | Cmax ([2]; human, in vivo, sc, 1 mg, Group A1, single 1.0 mg sc, mean, N=6, read-out: Cmax): 82.9 ng/mL | Cmax ([2]; human, in vivo, sc, 4 mg, Group A2, single 4.0 mg sc, mean, N=6, read-out: Cmax): 356 ng/mL | AUC(0-t) ([2]; human, in vivo, sc, 5 mg, Group B1, 5 mg sc QD, Day 1, mean, N=6): 7790 ng·h/mL | Cmax ([2]; human, in vivo, sc, 5 mg, Group B1, 5 mg sc QD, Day 1, mean, N=6, read-out: Cmax): 384 ng/mL | Cmax ([2]; human, in vivo, sc, 5 mg, Group B1, 5 mg sc QD, Day 14, mean, N=6, Table 6, read-out: Cmax): 1020 ng/mL | Cmax ([2]; human, in vivo, sc, 5 mg, Group B1, 5 mg sc QD, Day 14, mean, N=6, Table 7, read-out: Cmax): 1020 ng/mL | AUC(0-t) ([2]; human, in vivo, sc, 5 mg, Group B1, 5 mg sc QD, Day 14, mean, N=6): 21600 ng·h/mL | Cmax ([2]; human, in vivo, sc, 12 mg, Group A3, single 12.0 mg sc, mean, N=6, read-out: Cmax): 1000 ng/mL | AUC(0-t) ([2]; human, in vivo, sc, 15 mg, Group B2, 15 mg sc QD, Day 1, mean, N=6): 29600 ng·h/mL | Cmax ([2]; human, in vivo, sc, 15 mg, Group B2, 15 mg sc QD, Day 1, mean, N=6, read-out: Cmax): 1630 ng/mL | Cmax ([2]; human, in vivo, sc, 15 mg, Group B2, 15 mg sc QD, Day 14, mean, N=6, Table 6, read-out: Cmax): 3630 ng/mL | Cmax ([2]; human, in vivo, sc, 15 mg, Group B2, 15 mg sc QD, Day 14, mean, N=6, Table 7, read-out: Cmax): 3630 ng/mL | AUC(0-t) ([2]; human, in vivo, sc, 15 mg, Group B2, 15 mg sc QD, Day 14, mean, N=6): 67200 ng·h/mL | Cmax ([2]; human, in vivo, sc, 24 mg, Group A4, single 24.0 mg sc, mean, N=6, read-out: Cmax): 2360 ng/mL | AUC(0-t) ([2]; human, in vivo, sc, 30 mg, Group B3, 30 mg sc QD, Day 1, mean, N=6): 38400 ng·h/mL | Cmax ([2]; human, in vivo, sc, 30 mg, Group B3, 30 mg sc QD, Day 1, mean, N=6, read-out: Cmax): 2010 ng/mL | Cmax ([2]; human, in vivo, sc, 30 mg, Group B3, 30 mg sc QD, Day 14, mean, N=6, Table 6, read-out: Cmax): 6010 ng/mL | Cmax ([2]; human, in vivo, sc, 30 mg, Group B3, 30 mg sc QD, Day 14, mean, N=6, Table 7, read-out: Cmax): 6010 ng/mL | AUC(0-t) ([2]; human, in vivo, sc, 30 mg, Group B3, 30 mg sc QD, Day 14, mean, N=6): 118000 ng·h/mL | Cmax ([2]; human, in vivo, sc, 48 mg, Group A5, single 48.0 mg sc, mean, N=6, read-out: Cmax): 4560 ng/mL | Cmax ([2]; human, in vivo, subcutaneous, 4 mg, SAD study after 4 mg, read-out: Mean Cmax): 356 ng/mL | AUC(0-inf) ([2]; human, in vivo, Group A1, single 1.0 mg sc, mean, N=6): 3220 ng·h/mL | AUC(0-inf) ([2]; human, in vivo, Group A2, single 4.0 mg iv, mean, N=6): 19700 ng·h/mL | AUC(0-inf) ([2]; human, in vivo, Group A2, single 4.0 mg sc, mean, N=6): 15000 ng·h/mL | AUC(0-inf) ([2]; human, in vivo, Group A3, single 12.0 mg sc, mean, N=6): 37100 ng·h/mL | AUC(0-inf) ([2]; human, in vivo, Group A4, single 24.0 mg sc, mean, N=6): 78600 ng·h/mL | AUC(0-inf) ([2]; human, in vivo, Group A5, single 48.0 mg sc, mean, N=6): 178000 ng·h/mL | AUC(0-inf) ([2]; human, in vivo, Group B1, 5 mg sc QD, Day 14, mean, N=6): 50300 ng·h/mL | half-life ([2]; human, in vivo, Group B1, 5 mg sc QD, Day 14, mean, N=6, read-out: T½ (converted)): 23.4 h | AUC(0-inf) ([2]; human, in vivo, Group B2, 15 mg sc QD, Day 14, mean, N=6): 143000 ng·h/mL | half-life ([2]; human, in vivo, Group B2, 15 mg sc QD, Day 14, mean, N=6, read-out: T½ (converted)): 22.9 h | AUC(0-inf) ([2]; human, in vivo, Group B3, 30 mg sc QD, Day 14, mean, N=6): 278000 ng·h/mL | half-life ([2]; human, in vivo, Group B3, 30 mg sc QD, Day 14, mean, N=6, read-out: T½ (converted)): 24.3 h | half-life ([2]; human, in vivo, sc multiple ascending doses, read-out: Terminal half life): 23 to 24 h | dose proportionality of exposures ([2]; multiple ascending sc doses, up to dose regimen of 30 mg): increased dose-proportionally | dose proportionality of exposures ([2]; single ascending sc doses, up to a dose of 12 mg): increased dose-proportionally
Compound: CCCCCCCCCCCCCCCC(=O)N[C@@H](CCC(=O)N[C@@H](CCC(=O)N[C@@H](CCC(=O)NCCCOCCOCCOCCCNC(=O)CCC(=O)NCCCOCCOCCOCCCNC(=O)CCC(=O)NCCCOCCOCCOCCCNC(=O)CCC(=O)NCCCC[C@H](NC(=O)CNC(=O)[C@H](CCC(=O)O)NC(=O)C(C)(C)NC(=O)C(C)(C)NC(=O)[C@@H](NC(=O)[C@H](CCCCNC(C)=O)NC(=O)[C@H](C)NC(=O)[C@H](CCCNC(=N)N)NC(=O)[C@@H](NC(=O)[C@H](CCCCN)NC(=O)[C@H](CCC(=O)O)NC(=O)[C@H](CCCNC(=N)N)NC(=O)CNC(=O)[C@H](CCC(=O)O)NC(=O)[C@H](CC(C)C)NC(C)=O)C(C)C)[C@@H](C)CC)C(=O)N[C@@H](CO)C(=O)N[C@H](C(=O)N[C@@H](Cc1ccccc1)C(=O)N[C@@H](CO)C(=O)N[C@@](C)(CCCCN)C(=O)N[C@@H](CCCNC(=N)N)C(=O)N[C@@H](C)C(=O)N[C@@H](CCCCNC(C)=O)C(N)=O)[C@@H](C)O)C(=O)O)C(=O)O)C(=O)O [SEQ ID NO: 3, Ac-L-E-G-R-E-K-V-R-A-K(Ac)-I-Aib-Aib-E-G-K(TTDS-TTDS-TTDS-gE-gE-gE-Palm)-S--T-F-S-Mly-R-A-K(Ac)-NH2] (Ac-LEGREKVRAK(Ac)I[Aib][Aib]EGK([Suc-X1])STFS[αMeK]RAK(Ac)-NH2)
tolerability and safety ([3]; 5 subjects severe renal impairment and 2 normal renal function): well tolerated and safe | severity of reported adverse events ([3]; two AEs (palpitation, headache) in one subject): grade 1 (mild) | tolerability and safety ([4]; part A: single sc 1.0, 4.0, 12.0, 24, 48 mg and single iv 4.0 mg): well tolerated and safe | severity of reported adverse events ([4]; part A: single sc 1.0-48 mg and iv 4.0 mg): mild (grade 1) | severity of reported adverse events [4, 6]: mild (grade 1) | tolerability and safety [4, 6]: well tolerated and safe

Source: patent publication US20240400638A1, “COMBINATION OF RELAXIN AND VASOPRESSIN ANALOGUES FOR TREATMENT OF RENAL DISORDERS OR CONDITIONS” (River 2 Renal Corp., priority 2021, published 2024)
